According to patent US20110034472A1, “Novel Compounds for Treatment of Cancer and Disorders Associated With Angiogenesis Function” (UNIVERSITY OF SOUTHERN CALIFORNIA, priority 2004, published 2011):

System: T24 bladder cancer cell lines
Assay: StaRT-PCR gene expression, SC23
Type: cell-based, human
Experimental: FIG. 21 illustrates RT-PCR gene expression analysis. Total RNA form T24 cells was isolated and cDNA was synthesized with 2.5 ug of total RNA. Standardized RT-PCR was performed with GENE system I gene expression kit (Gene Express Inc.). Each kit contains a mixture of the internal competitive templates and the corresponding primers.
Total RNA form T24 cells were isolated after 3h, Oh, 12h, 24h, and 48h exposure to SC23.
StaRT-PCR™ (Standardized Reverse Transcription Polymerase Chain Reaction). First described by Willey et al. ((2004) Methods Mol. Biol. 258:13-41), this technique uses standardized mixtures of competitive templates (CT) as internal standards in generating valid and reproducible numerical gene expression data for multiple genes. After the mRNA was converted to cDNA, the cDNA was mixed with a proprietary Standardized Mixture of Internal Standards™ (SMIS™, GeneExpress, Inc.). In the standard mixture, there is an internal standard CT for each gene to be measured as well as one for a reference gene. (i.e., β-actin, GAPDH). The amplicons produced by StaRT-PCR™ was then separated on capillary electrophoresis. The amount of internal standard CT or NT amplimer was determined by measuring each peak area. All data were then reported as number of molecules of mRNA for gene of interest per 10^6 molecules of reference gene (normalizer gene). Serial dilutions of the SMIS™ allow quantitative measurements over 7 log range of gene expression observed in cells from <10 to 10^7 molecules/10^6 molecules reference gene. Data presented in Table 8 are number of copies that have been normalized against 10^6 molecule of β-actin.

- CYP1A2 expression (24 hours): 36.62 molecules/10^6 β-actin
- CYP1A2 expression (48 hours): 37.48 molecules/10^6 β-actin
Compound: O=C(NNC(O)c1cc2ccccc2cc1O)c1cc2ccccc2cc1O (stereo not shown) [SC23]
- E2F4 expression (12 hours): 1673.69 molecules/10^6 β-actin
- E2F5 expression (12 hours): 486.8 molecules/10^6 β-actin
- JUN expression (12 hours): 5419.7 molecules/10^6 β-actin
- MAD expression (12 hours): 7122.48 molecules/10^6 β-actin
- MAP3K14 expression (12 hours): 158.89 molecules/10^6 β-actin
- MYC expression (12 hours): 5205.65 molecules/10^6 β-actin
- NFKB1 expression (12 hours): 6131.17 molecules/10^6 β-actin
- PCNA expression (12 hours): 5756.09 molecules/10^6 β-actin
- PTGS2 expression (12 hours): 2138.52 molecules/10^6 β-actin
- RB1 expression (12 hours): 3301.83 molecules/10^6 β-actin
- RBL2 expression (12 hours): 2698.44 molecules/10^6 β-actin
- TGFBR2 expression (12 hours): 6799.19 molecules/10^6 β-actin
- TGIF expression (12 hours): 13858.11 molecules/10^6 β-actin
- TNFAIP1 expression (12 hours): 22572.81 molecules/10^6 β-actin
- TNFRSF1A expression (12 hours): 107.17 molecules/10^6 β-actin
- TNFSF10 expression (12 hours): 288.01 molecules/10^6 β-actin
- TP53 expression (12 hours): 1663.37 molecules/10^6 β-actin
- TRAF4 expression (12 hours): 222.84 molecules/10^6 β-actin
- BCL2L1 expression (24 hours): 30504.02 molecules/10^6 β-actin
- BCL2 expression (24 hours): 35.99 molecules/10^6 β-actin
- CASP1 expression (24 hours): 142.49 molecules/10^6 β-actin
- CCNA2 expression (24 hours): 241.1 molecules/10^6 β-actin
- CCND3 expression (24 hours): 404.3 molecules/10^6 β-actin
- CCNE1 expression (24 hours): 47.28 molecules/10^6 β-actin
- CCNG1 expression (24 hours): 17499.15 molecules/10^6 β-actin
- CDC2 expression (24 hours): 2054.95 molecules/10^6 β-actin
- CDC25C expression (24 hours): 326.46 molecules/10^6 β-actin
- CDK7 expression (24 hours): 9983.36 molecules/10^6 β-actin
- CDK8 expression (24 hours): 1706.26 molecules/10^6 β-actin
- CDKN1A expression (24 hours): 225.4 molecules/10^6 β-actin
- CDKN1B expression (24 hours): 2092.37 molecules/10^6 β-actin
- CDKN2A expression (24 hours): 163.48 molecules/10^6 β-actin
- CDKN2C expression (24 hours): 904.8 molecules/10^6 β-actin
- DAP expression (24 hours): 56353.65 molecules/10^6 β-actin
- E2F4 expression (24 hours): 1582.79 molecules/10^6 β-actin
- E2F5 expression (24 hours): 1178.84 molecules/10^6 β-actin
- JUN expression (24 hours): 8677.27 molecules/10^6 β-actin
- MAD expression (24 hours): 13204.24 molecules/10^6 β-actin
- MAP3K14 expression (24 hours): 143.47 molecules/10^6 β-actin
- MYC expression (24 hours): 11117.04 molecules/10^6 β-actin
- NFKB1 expression (24 hours): 16919.99 molecules/10^6 β-actin
- PCNA expression (24 hours): 12795.59 molecules/10^6 β-actin
- PTGS2 expression (24 hours): 19413.37 molecules/10^6 β-actin
- RB1 expression (24 hours): 5935.72 molecules/10^6 β-actin
- RBL2 expression (24 hours): 8604.92 molecules/10^6 β-actin
- TGFBR2 expression (24 hours): 15367.23 molecules/10^6 β-actin
- TGIF expression (24 hours): 15445.36 molecules/10^6 β-actin
- TNFAIP1 expression (24 hours): 39858.96 molecules/10^6 β-actin
- TNFRSF1A expression (24 hours): 26.61 molecules/10^6 β-actin
- TNFSF10 expression (24 hours): 151.09 molecules/10^6 β-actin
- TP53 expression (24 hours): 4238.06 molecules/10^6 β-actin
- TRAF4 expression (24 hours): 242.44 molecules/10^6 β-actin
- BCL2L1 expression (48 hours): 21299.99 molecules/10^6 β-actin
- BCL2 expression (48 hours): 22.29 molecules/10^6 β-actin
- CASP1 expression (48 hours): 184.55 molecules/10^6 β-actin
- CCNA2 expression (48 hours): 137.61 molecules/10^6 β-actin
- CCND3 expression (48 hours): 641.75 molecules/10^6 β-actin
- CCNE1 expression (48 hours): 146.61 molecules/10^6 β-actin
- CCNG1 expression (48 hours): 25388.52 molecules/10^6 β-actin
- CDC2 expression (48 hours): 497.44 molecules/10^6 β-actin
- CDC25C expression (48 hours): 68.37 molecules/10^6 β-actin
- CDK7 expression (48 hours): 19212.16 molecules/10^6 β-actin
- CDK8 expression (48 hours): 3052.4 molecules/10^6 β-actin
- CDKN1A expression (48 hours): 288.56 molecules/10^6 β-actin
- CDKN1B expression (48 hours): 414.6 molecules/10^6 β-actin
- CDKN2A expression (48 hours): 3382.09 molecules/10^6 β-actin
- CDKN2C expression (48 hours): 650.26 molecules/10^6 β-actin
- DAP expression (48 hours): 70325.95 molecules/10^6 β-actin
- E2F4 expression (48 hours): 3738.46 molecules/10^6 β-actin
- E2F5 expression (48 hours): 2144.23 molecules/10^6 β-actin
- JUN expression (48 hours): 9510.55 molecules/10^6 β-actin
- MAD expression (48 hours): 12999.27 molecules/10^6 β-actin
- MAP3K14 expression (48 hours): 720.55 molecules/10^6 β-actin
- MYC expression (48 hours): 8944.84 molecules/10^6 β-actin
- NFKB1 expression (48 hours): 26524.38 molecules/10^6 β-actin
- PCNA expression (48 hours): 6913.72 molecules/10^6 β-actin
- PTGS2 expression (48 hours): 26516.88 molecules/10^6 β-actin
- RB1 expression (48 hours): 6552.57 molecules/10^6 β-actin
- RBL2 expression (48 hours): 11571.33 molecules/10^6 β-actin
- TGFBR2 expression (48 hours): 5072 molecules/10^6 β-actin
- TGIF expression (48 hours): 19849.69 molecules/10^6 β-actin
- TNFAIP1 expression (48 hours): 49955.6 molecules/10^6 β-actin
- TNFRSF1A expression (48 hours): 21.29 molecules/10^6 β-actin
- TNFSF10 expression (48 hours): 79.65 molecules/10^6 β-actin
- TP53 expression (48 hours): 2821 molecules/10^6 β-actin
- TRAF4 expression (48 hours): 298.28 molecules/10^6 β-actin
